The source of these data is ChEMBL document CHEMBL3632597, “Synthesis and biological evaluation of 5-(fluoro-substituted-6-methylpyridin-2-yl)-4-([1,2,4]triazolo[1,5-a]pyridin-6-yl)imidazoles as inhibitors of transforming growth factor-β type I receptor kinase” (Bioorg Med Chem Lett, 2015).

For orientation: IC50 means the point on the concentration scale where inhibition reaches its midpoint.

Experiment [1] has as its target Mitogen-activated protein kinase 14 (Homo sapiens, UniProt Q16539). Description: Inhibition of human recombinant p38alpha expressed in Escherichia coli using ATF2 as substrate by proprietary radioisotopic protein kinase assay.
The target of experiment [2] is T1, TGF-beta receptor type-1 (Homo sapiens, UniProt P36897).
T1 sequence (P36897 whole entry): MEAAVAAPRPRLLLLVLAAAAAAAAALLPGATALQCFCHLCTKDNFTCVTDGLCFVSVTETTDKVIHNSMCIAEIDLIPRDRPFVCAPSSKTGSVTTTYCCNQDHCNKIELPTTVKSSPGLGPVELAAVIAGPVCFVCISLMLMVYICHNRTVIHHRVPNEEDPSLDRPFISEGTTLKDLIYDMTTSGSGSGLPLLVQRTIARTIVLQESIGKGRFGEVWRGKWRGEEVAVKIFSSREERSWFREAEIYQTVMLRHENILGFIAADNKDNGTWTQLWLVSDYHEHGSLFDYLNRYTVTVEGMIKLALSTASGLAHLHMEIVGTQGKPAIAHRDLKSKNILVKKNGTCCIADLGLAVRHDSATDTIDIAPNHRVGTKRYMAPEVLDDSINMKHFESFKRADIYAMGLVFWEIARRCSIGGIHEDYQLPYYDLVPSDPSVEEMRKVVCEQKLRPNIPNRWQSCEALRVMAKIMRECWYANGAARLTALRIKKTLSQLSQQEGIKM
Description: Inhibition of human recombinant GST-fused ALK5 expressed in Sf9 insect cells using casein as substrate by proprietary radioisotopic protein kinase assay.

Each structure is given as a SMILES string.

Sequence of Mitogen-activated protein kinase 14 (Q16539 whole entry): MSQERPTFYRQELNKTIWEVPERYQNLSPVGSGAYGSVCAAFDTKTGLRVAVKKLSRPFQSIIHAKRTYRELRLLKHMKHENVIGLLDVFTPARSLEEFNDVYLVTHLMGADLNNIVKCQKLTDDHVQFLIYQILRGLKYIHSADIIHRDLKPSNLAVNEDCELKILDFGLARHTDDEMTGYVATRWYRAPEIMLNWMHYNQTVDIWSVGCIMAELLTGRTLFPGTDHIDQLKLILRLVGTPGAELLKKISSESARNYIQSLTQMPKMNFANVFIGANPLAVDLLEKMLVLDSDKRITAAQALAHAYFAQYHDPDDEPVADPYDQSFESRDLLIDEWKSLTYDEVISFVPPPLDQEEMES

Regarding `Cc1ccc(F)c(-c2[nH]c(CNc3ccccc3)nc2-c2ccc3ncnn3c2)n1`, the IC50 was determined as 0.399 µM in experiment [1] and 0.00976 µM in experiment [2].
For `Cc1ccc(F)c(-c2[nH]c(CNc3ccccc3F)nc2-c2ccc3ncnn3c2)n1`, in that order: 0.766 µM and 0.0121 µM.
For `Cc1ccc(F)c(-c2[nH]c(CNc3cccc(C#N)c3)nc2-c2ccc3ncnn3c2)n1`, in that order: 0.209 µM and 0.00923 µM.
For `Cc1ccc(F)c(-c2[nH]c(CNc3cccc(C(N)=O)c3)nc2-c2ccc3ncnn3c2)n1`, in that order: 0.251 µM and 0.011 µM.
As to `C=Cc1cccc(NCc2nc(-c3ccc4ncnn4c3)c(-c3nc(C)ccc3F)[nH]2)c1`, the IC50 in experiment [1] came out at 0.171 µM; in experiment [2], 0.00981 µM.
For `Cc1cc(F)cc(-c2[nH]c(CNc3ccccc3)nc2-c2ccc3ncnn3c2)n1` the same measures were over 10 µM and 0.0725 µM.
For `Cc1cc(F)cc(-c2[nH]c(CNc3ccccc3F)nc2-c2ccc3ncnn3c2)n1`, in that order: over 10 µM and 0.0419 µM.
For `Cc1nc(-c2[nH]c(CNc3ccccc3)nc2-c2ccc3ncnn3c2)ccc1F`, in that order: 2.04 µM and 0.00923 µM.
For the compound `Cc1nc(-c2[nH]c(CNc3ccccc3F)nc2-c2ccc3ncnn3c2)ccc1F`, the concentration for half-maximal inhibition (IC50) came to 3.37 µM in experiment [1] and 0.0125 µM in experiment [2].
For `Cc1nc(-c2[nH]c(CNc3cccc(C#N)c3)nc2-c2ccc3ncnn3c2)ccc1F`, in that order: 1.24 µM and 0.00768 µM.
With `Cc1nc(-c2[nH]c(CNc3cccc(C(N)=O)c3)nc2-c2ccc3ncnn3c2)ccc1F`, the half-inhibitory concentration (IC50) turned out to be 1.48 µM in experiment [1] and 0.0108 µM in experiment [2].
For `C=Cc1cccc(NCc2nc(-c3ccc4ncnn4c3)c(-c3ccc(F)c(C)n3)[nH]2)c1` the same measures were 1.81 µM and 0.0137 µM.
As to `Cc1cccc(-c2nn3c(c2-c2ccnc4ccc(C(N)=O)cc24)CCC3)n1` [GALUNISERTIB], in experiment [1], the IC50 is 0.405 µM.
